Assay [1] relates to CCRF-CEM. As to the kind of experiment: Representative inhibition values against CCRF-CEM cell cultures. The assay is classed as cell-based. Conditions: Homo sapiens.
The subject of assay [2] is Cem human lymphoblastic leukemia cells. The assay is described as follows: Reversal studies to identify the point of enzymatic inhibition (Example 11). The assay is classed as cell-based. Conditions: from reversal with 100 µM hypoxanthine and/or 5 µM thymidine. The method, then: The mechanism of action of each compound was determined through further tests employing so-called "reversal" studies. These studies supplied compounds or precursors which, alone or together, identified the specific point of enzymatic inhibition. • (a) Hypoxanthine - Hypoxanthine will reverse the inhibitory effects of a compound if the compound functions as an inhibitor of purine de novo synthesis. The availability of hypoxanthine thus allows cells to bypass purine de novo synthesis. • (b) Thymidine - Thymidine alone will reverse the inhibitory effects of a compound if the compound functions as a specific inhibitor of thymidylate synthetase. • (c) Hypoxanthine and Thymidine - If a compound is determined in (a) to not be an inhibitor of purine de novo synthesis, and in (b) to not be an inhibitor of thymidilate synthetase, then a reversal study utilizing hypoxanthine and thymidine, in combination, will determine whether the compound can produce inhibition of both pathways. Thus if this combination reverses the inhibitory effects of a compound, the compound most likely functions as an inhibitor of dihydrofolate reductase (involved in both purine and pyrimidine biosynthesis).
In each case, the basic procedure outlined above was followed, modified in that 250 µl of the reversal compound [or of each reversal compound in […]] was added to the test wells, and the amount of serumless media added to each test well was decreased [or entirely eliminated in (b)] by the same amount. The reversal compounds were prepared as 8X stock solutions in phosphate buffered saline (sterile filtered through a 0.2 µ acrodisc filter - Gelman) so that 250 µl of the stock solution would yield a final concentration of 100 µM hypoxanthine and/or 5 µM thymidine.

Assay [3] shares this test system. The assay is described as follows: Inhibition of growth of Cem human lymphoblastic leukemia cells, 72 hours incubation, Coulter Counter particle count (Example 11). The format is cell-based. Conditions: for activity at 0.015 µg/mL: concentration 0.015 µg/ml; for activity at 0.045 µg/mL: concentration 0.045 µg/ml; for activity at 0.137 µg/mL: concentration 0.137 µg/ml; for activity at 0.411 µg/mL: concentration 0.411 µg/ml; for activity at 1.23 µg/mL: concentration 1.23 µg/ml; for activity at 3.7 µg/mL: concentration 3.7 µg/ml; for activity at 11.1 µg/mL: concentration 11.1 µg/ml; for activity at 33.3 µg/mL: concentration 33.3 µg/ml; for IC50: concentration inhibiting 50% of cellular growth, read-out: relative overall in vitro inhibitory concentration (IC50). The method, then: Each of the compounds was dissolved in 100% dimethylsulfoxide. Dilutions of each compound were prepared to yield a range of test concentrations as hereinafter indicated.
Cem human lymphoblastic leukemia cells are grown in RPMI 1640 media (MABio), supplemented with 10% dialyzed fetal bovine serum (Gibco) at 37°C in humidified atmospheric conditions of 95% air and 5% CO₂. The cells are grown in static suspension (T-flask, Corning) maintained in log phase at a concentration of 3-7 x 10⁵ cells/ml.
(i) 10 µl of a test compound is placed in a well (Costar 24 well clusters). This step is repeated for each test concentration of the compounds. (ii) 500 µl of serum-free media is added to each well. (iii) A sterile bottle containing RPMI 1640 media supplemented with 10% dialyzed fetal bovine serum, 16 mM hepes and 8 mM mops buffers and 3 x 10⁴ cells/ml is placed on a magnetic stirrer. A Wheaton peristaltic pump is used to deliver 1.5 ml of this cell suspension to each well. The resulting final volume delivered to each well is 2.0 ml at a cellular concentration of […]. (iv) The cluster wells are incubated at 37°C in a humidified incubator (95% air, 5% CO₂) for 72 hours. (v) After the incubation period, measurements of each well are taken using the ZB1 Coulter Counter particle counter and the IC₅₀ (concentration inhibiting 50% of cellular growth) is determined. (vi) The results of this test are as follows: Table I

Assay [4] relates to tumor cells. As to the kind of experiment: In vivo antitumor activity in mice inoculated with tumor cells, eight daily i.p. doses. Also on record: species or system strain DBA/2. Conditions: for % Inhibition / Tumor Weight: eight daily doses; for Tumor Weight: mean ± standard deviation. The method, then: Female mice, strain DBA/2, were inoculated with tumor cells. Treatment with the test compounds began the day following inoculation. The treatment consisted of eight daily doses i.p. (intraperitoneal) of either Compounds A and C for eight consecutive days. Tumor size was measured on the day following the last day of treatment to determine the inhibitory effect of the test compounds on tumor growth.

Setting [5] is: Homo sapiens, CCRF-CEM, 72 hours, read-out: Cellular Growth (%).
Where [6] appears, read: Homo sapiens, CCRF-CEM, 72 hours.
[7] abbreviates: Table VI Run 1, dose 12.50 mg/kg i.p.
Setting [8] is: Table VI Run 1, dose 25.00 mg/kg i.p.
The mark [9] stands for this setting: Table VI Run 1, dose 50.00 mg/kg i.p.
The mark [10] stands for this setting: Table VI Run 1, dose 100.00 mg/kg i.p.
Where [11] appears, read: Table VI Run 1, dose 200.00 mg/kg i.p.
[12] abbreviates: Table VI Run 2, dose 0.6256 mg/kg i.p.
[13] abbreviates: Table VI Run 2, dose 1.25 mg/kg i.p.
[14] abbreviates: Table VI Run 2, dose 5 mg/kg i.p.
The mark [15] stands for this setting: Table VI Run 2, dose 10 mg/kg i.p.
Setting [16] is: Table VI Run 2, dose 20 mg/kg i.p.
Setting [17] is: Table VI Run 2, dose 40 mg/kg i.p.

Structures are written as SMILES. ≈ marks a conversion by molar mass, not a printed value. Entries after “also recorded” stand apart in the source; their conditions may differ. Where only a bound is given, the exact number is not on record here.

As for `Nc1nc(O)c2c(CCc3cccc(F)c3)c[nH]c2n1`, the IC50 in assay [1] is > 20 µg/mL.

Molecule `O=C(O)CC[C@H](NC(=O)c1ccc(CCc2c[nH]c3ncnc(O)c23)cc1)C(=O)O` [N-{4-[2-(4-hydroxypyrrolo[2,3-d]pyrimidin-3-yl)ethyl]benzoyl}-L-glutamic acid] registered an IC50 in assay [1] of 1.2 µg/mL (≈ 2.91 µM).

`Nc1nc(O)c2c(CCc3ccc(C(=O)N[C@@H](CCC(=O)O)C(=O)O)s3)c[nH]c2n1` [N-{5-[2-(4-hydroxy-6-aminopyrrolo[2,3-d]-pyrimidin-3-yl)ethyl]thien-2-ylcarbonyl}-L-glutamic acid] showed an IC50 in assay [1] of 0.025 µg/mL (≈ 0.0577 µM).

`Cc1nc(O)c2c(CCc3ccc(C(=O)N[C@@H](CCC(=O)O)C(=O)O)cc3)c[nH]c2n1` [N-{4-[2-(4-hydroxy-6-methylpyrrolo[2,3-d]pyrimidin-3-yl)ethyl]-benzoyl}-L-glutamic acid]: the IC50 in assay [1] is 0.0084 µg/mL (≈ 0.0197 µM).

With `Nc1nc(O)c2c(CCc3ccc(C(=O)NC(CCC(=O)O)C(=O)O)cc3)c[nH]c2n1` (stereo not shown) [Compound C], the “mechanism of action (point of enzymatic inhibition)” value in assay [2] is given as “appear to inhibit TS”. In assay [3] (Homo sapiens, CCRF-CEM, concentration 0.005 µg/ml, 72 hours, read-out: Cellular Growth (%)), the activity at 0.005 µg/mL stood at 96%. For the same molecule, the activity at 0.015 µg/mL in assay [3] (setting [5]) came out at 25%. Further, the activity at 0.045 µg/mL in assay [3] (setting [5]) was found to be 14%. Further, in assay [3] (setting [5]), the activity at 0.137 µg/mL worked out at 14%. Further, the activity at 0.411 µg/mL in assay [3] (setting [5]) was 13%. In assay [3] (setting [5]), the activity at 1.23 µg/mL turned out to be 14%. For the same molecule, the activity at 3.7 µg/mL in assay [3] (setting [5]) is 13%. Also, the activity at 11.1 µg/mL in assay [3] (setting [5]) was found to be 12%. The activity at 33.3 µg/mL in assay [3] (setting [5]) is 12%. Besides, in assay [3] (Homo sapiens, CCRF-CEM, concentration 100.0 µg/ml, 72 hours, read-out: Cellular Growth (%)), the activity at 100 µg/mL is 14%. Also, in assay [3] (setting [6]), the IC50 stood at 0.007 µg/mL (≈ 0.0164 µM). The “more active in vitro than Compound A by a factor” value in assay [3] (in vitro, relative to Compound A) is recorded as “at least 25 fold”. The % Inhibition – broadly, how much of the control response was suppressed – in assay [4] (setting [7]) is 98%; in assay [4] (setting [8]), 100%; in assay [4] (setting [9]), 100%; in assay [4] (setting [10]), 100%; in assay [4] (setting [11]) it was 100%; in assay [4] (setting [12]), 0%. Moreover, the “% Inhibition” value in assay [4] (setting [13]) is given as 0%; in assay [4] (setting [14]) it was 83%; in assay [4] (setting [15]), 97%; in assay [4] (setting [16]) it was 100%; in assay [4] (setting [17]), 100%. Moreover, the “Tumor Weight” value came out at 102 ± 166 mg in assay [4] (setting [7]); 0 ± 0 mg in assay [4] (setting [8]); 0 ± 0 mg in assay [4] (setting [9]); 0 ± 0 mg in assay [4] (setting [10]); 0 ± 0 mg in assay [4] (setting [11]); 7381 ± 2397 mg in assay [4] (setting [12]). The “Tumor Weight” value in assay [4] (setting [13]) was 6682 ± 2300 mg; in assay [4] (Table VI Run 2, dose 2.5 mg/kg i.p.), 2908 ± 1948 mg; in assay [4] (setting [14]), 1034 ± 657 mg; in assay [4] (setting [15]), 196 ± 152 mg; in assay [4] (setting [16]) it was 18 ± 57 mg; in assay [4] (setting [17]), 0 ± 0 mg. Moreover, the “inhibitory effect on tumor growth in vivo” value in assay [4] (overall assessment in words) is reported as “marked in vivo inhibitory effect; also recorded: highly active”.

For the molecule `COc1ccc(CCc2c[nH]c3nc(N)nc(O)c23)cc1` [3-[2-(4-methoxyphenyl)ethyl]-4-hydroxy-6-aminopyrrolo[2,3-d]pyrimidine], the IC50 in assay [1] is > 20 µg/mL.

Molecule `Nc1nc(O)c2c(CCc3ccc(C(=O)N[C@@H](CCC(=O)O)C(=O)O)cc3F)c[nH]c2n1` gave an IC50 in assay [1] of 0.019 µg/mL (≈ 0.0427 µM).

`Nc1nc(O)c2c(CCc3ccc(C(=O)O)cc3)c[nH]c2n1`: the IC50 in assay [1] is > 20 µg/mL.

Take `Nc1nc(O)c2c(CCCc3ccc(C(=O)NC(CCC(=O)O)C(=O)O)cc3)c[nH]c2n1` (stereo not shown) [Compound B]: in assay [2], the “mechanism of action (point of enzymatic inhibition)” value is recorded as “inhibition of DHFR rather than TS”. Besides, in assay [3] (setting [5]), the activity at 0.015 µg/mL amounted to 76.9%, the activity at 0.045 µg/mL worked out at 33.5%, the activity at 0.137 µg/mL is 17.7% and the activity at 0.411 µg/mL is 13%. Further, in assay [3] (setting [5]), the activity at 1.23 µg/mL amounted to 11.3%, the activity at 3.7 µg/mL worked out at 10.4%, the activity at 11.1 µg/mL came out at 9.6% and the activity at 33.3 µg/mL came to 10.8%. Besides, the IC50 in assay [3] (setting [6]) came out at 0.03 µg/mL (≈ 0.068 µM).

The molecule `Nc1nc(O)c2c(CCc3ccc(C(=O)N[C@@H](CCC(=O)O)C(=O)O)c(F)c3)c[nH]c2n1` had an IC50 in assay [1] of 0.008 µg/mL (≈ 0.018 µM).
